In patent publication US20150342906A1, “Anti-sneeze and nose vestibule care - compositions, methods, and devices” (priority 2014, published 2015):

Assay: oral 10 mg cetirizine pill during allergic reaction
Type: in vivo, human
Conditions: person, 10 mg pill around noon
Method: The irritants in degraded fall leaves and yard debris caused an overwhelming allergic reaction. They took a pill of 10 mg cetirizine around 12 o'clock noon time. […] They suffered a severe running nose and sneezes. They used the anti-sneeze sticks and cotton swabs described in previous examples frequently.

O=C(O)COCCN1CCN(C(c2ccccc2)c2ccc(Cl)cc2)CC1 (stereo not shown) [cetirizine]
effect of oral drug on allergic reaction, running nose and sneezes: did not take effect as expected
